In patent US6881719B2, “β-turn peptidomimetic cyclic compounds” (McGill University, priority 2000, dated 2005):

Key:
cell surface TrkA = target: T1, cell surface TrkA (Homo sapiens, UniProt P04629); experiment: FACScan competition of mAb 5C3 binding on 4-3.6 cells; settings: for % Maximal binding of mAb 5C3: mAb 1 nM
T1 construct: expressed in transfected cells
Source text: (§1) The 4-3.6 cells are B104 cells stably transfected with human trkA cDNA, and express equal levels of p75 and TrkA (TrkA+ p75+). For screening agents that activate or antagonize TrkC receptors, NIH3T3 fibroblasts were stably transfected with human TrkC cDNA. These cells respond to the ligand NT-3. For screening agents that activate or antagonize TrkA receptors, NIH3T3 fibroblasts were stably transfected with human TrkA cDNA. These cells respond to the ligand NGF.
FACScan binding assays: 4-3.6 cells (2×10^5) in FACScan binding buffer (PBS, 0.5% BSA, and 0.1% NaN3) were immunostained as described (Saragovi et al., 1998). Saturating anti-TrkA mAb 5C3, or anti-p75 mAb MC192, or control non-binding IgGs were added to cells for 1 hour at 4° C., in the presence or absence of D3 as competitor. Excess primary antibody was washed off, and cells were immunostained with fluorescinated goat-anti-mouse IgG secondary antibody. Cells were acquired on a FACScan and mean channel fluorescence of bell-shaped histograms were analyzed using the LYSIS II program.

[1] = target: T2, NIH3T3 fibroblasts expressing TrkA (Homo sapiens, UniProt P04629); experiment: Cell survival (MTT), NIH-TrkA; type: cell-based; settings: for NIH-TrkA % Protection: 72 hours;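 on NIH-TrkA % Protection: 100% equals survival with optimal NGF at 1 nM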
T2 construct: expressed in transfected cells; host or cells: NIH3T3 fibroblasts
Source text: as §1, with “These cells respond to the ligand NT-3.” left out, “cDNA.” for “cDNA. These cells respond to the ligand NGF.”
(§2) Cell lines: 5,000 cells/well in protein-free media (PFHM-II, GIBCO, Toronto) containing 0.2% bovine serum albumin (BSA) (Crystalline fraction V, Sigma, St. Louis, Mo.) were seeded in 96 well plates (Falcon, Mississauga, Ontario). The cultures were untreated, or treated with the indicated test or control ligands. Cell viability was quantitated using the MTT assay after 56-72 hours of culture. […] The OD of untreated cells were subtracted.

wild type HEK293 cells = experiment: Cell survival control, wild type HEK293 cells; type: cell-based
Experimental: as §2, with “subtracted. The higher optical density of untreated primary cultures is likely due to cellular heterogeneity and to endogenous production of limiting amounts of growth factors.” for “subtracted.”

physchem = settings: water
[2] = tested on: TrkB-expressing HEK293 cells; experiment: Cell survival control, TrkB-expressing HEK293 cells; type: cell-based
Experimental: as §2, with “subtracted. The higher optical density of untreated primary cultures is likely due to cellular heterogeneity and to endogenous production of limiting amounts of growth factors.” for “subtracted.”

T1 sequence (P04629 33-796): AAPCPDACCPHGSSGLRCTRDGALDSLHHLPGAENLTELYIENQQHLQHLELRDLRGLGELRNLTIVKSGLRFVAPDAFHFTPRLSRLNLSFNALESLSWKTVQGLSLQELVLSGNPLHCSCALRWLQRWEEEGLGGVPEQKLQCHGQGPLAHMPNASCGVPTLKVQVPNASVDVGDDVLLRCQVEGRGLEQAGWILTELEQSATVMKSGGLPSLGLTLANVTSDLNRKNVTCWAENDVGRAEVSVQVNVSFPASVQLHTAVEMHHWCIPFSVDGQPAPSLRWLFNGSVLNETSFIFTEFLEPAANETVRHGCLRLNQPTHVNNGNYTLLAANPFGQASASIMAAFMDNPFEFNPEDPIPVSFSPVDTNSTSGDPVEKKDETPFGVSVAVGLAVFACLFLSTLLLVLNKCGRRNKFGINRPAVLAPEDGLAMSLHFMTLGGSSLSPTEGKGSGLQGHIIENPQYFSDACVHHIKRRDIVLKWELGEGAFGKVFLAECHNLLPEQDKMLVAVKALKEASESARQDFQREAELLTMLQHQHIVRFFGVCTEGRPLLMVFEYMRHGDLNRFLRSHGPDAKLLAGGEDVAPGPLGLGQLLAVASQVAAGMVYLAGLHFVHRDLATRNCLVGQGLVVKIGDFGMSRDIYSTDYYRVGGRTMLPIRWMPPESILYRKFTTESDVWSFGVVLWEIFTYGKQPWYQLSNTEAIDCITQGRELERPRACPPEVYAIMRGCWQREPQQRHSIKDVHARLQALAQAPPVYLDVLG
T2 sequence (P04629 33-796): as above

- Kd (cell surface TrkA; estimated from experimental conditions, read-out: Kd for D3•TrkA interactions): ~2 µM
- IC50 (cell surface TrkA; intact 4-3.6 cells, on average, read-out: IC50, decrease of mAb 5C3•TrkA interactions): 4 µM
- % Maximal binding of mAb 5C3 (cell surface TrkA; competitor 0.20 μM): 95 ± 4%
- % Maximal binding of mAb 5C3 (cell surface TrkA; competitor 1 μM): 80 ± 3%
- % Maximal binding of mAb 5C3 (cell surface TrkA; competitor 5 μM): 53 ± 5%
- % Maximal binding of mAb 5C3 (cell surface TrkA; competitor 40 μM): 33 ± 4%
- solubility (physchem): ≥ 5000 µg/mL
SMILES: NCCCC[C@@H]1NC(=O)[C@H](CCC(=O)O)NC(=O)c2cc([N+](=O)[O-])ccc2OCCC(C(=O)NCC(=O)O)NC1=O (stereo partly drawn) [D3, EKHse-G-OH]
- enhancement of NGF protection ([1]; NIH3T3 cells stably transfected with TrkA cDNA): enhanced NGF protection
- NIH-TrkA % Protection ([1]; agent 10 μM + 10 pM NGF): 51 ± 5%
- NIH-TrkA % Protection ([1]; agent 10 μM alone): 8 ± 4%
- protection from apoptosis (wild type HEK293 cells): neither D3 nor NGF protected
- protection from apoptosis [2]: neither D3 nor NGF protected
